Tested on: patients with KCS with inflammation
Assay: four-week topical use of a Loteprednol etabonate ophthalmic formulation in patients with KCS with inflammation
Assay type: in vivo, human
Text: U.S. Patent Application. Publication No. 20030008853 discloses 22,29-epoxy-3,4,6,7,29-pentahydroxy-,(3α,4β,5α,6α,7-β,14β,22S)-stigmastan-15-one as useful for treating dry eye disorders and other disorders requiring the wetting of the eye. This publication further notes that corticosteroids, such as prednisolone, dexamethasone, fluoromethalone, hydrocortisone, loteprednol, triamcinolone, etc., cannot be used for prolonged therapy in dry eye patients without causing side effects. This publication further notes that steroid-related complications including increased intraocular pressure and cataract formation have been observed in dry eye patients treated with corticosteroids after several months of therapy.

Structure (SMILES): CCOC(=O)O[C@]1(C(=O)OCCl)CC[C@H]2[C@@H]3CCC4=CC(=O)C=C[C@]4(C)[C@H]3[C@@H](O)C[C@@]21C [Loteprednol etabonate, (11β,17α),-17-[(Ethoxycarbonyl)oxy]-11-hydroxy-3-oxoandrosta-1,4-diene-17-carboxylic acid chloromethyl ester]
- treatment effect in subsets of patients with a moderate to severe inflammatory component (more severe KCS) (patient subsets with moderate to severe inflammatory component): differential treatment effect, which was in some cases significant
- efficacy in the management of patients with KCS with inflammation (used for four weeks): efficacious
- tolerability in the management of patients with KCS with inflammation (used for four weeks): well tolerated
